This passage reports microsomal CLint and Papp results from patent US9409952B2, “Peptide-compound cyclization method” (Chugai Seiyaku Kabushiki Kaisha, priority 2011, dated 2016).

The nature of data set [1]: Metabolic stability in human hepatic microsome. It counts as in vitro ADME. The note with it: microsomes.
Data set [2] is described as follows: PAMPA (parallel artificial membrane permeability assay). Particulars: PAMPA. It counts as in vitro ADME. In short, it runs like this: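 Artificial membrane was 10% (w/v) egg lecithin plus 0.5% (w/v) cholesterol in dodecane on a PVDF filter. A 10 mM DMSO stock was added at 0.5% (v/v) to donor buffer (50 mM MOPSO, pH 6.5, 5.0% glycocholic acid). After 18 h at 37 °C, LC/MS or LC/UV gave donor and acceptor levels for Pe.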
In general terms: The PAMPA barrier holds no transporters, so it reflects passive diffusion.

The mark [3] stands for this setting: pH 7.4, human hepatic microsome, NADPH(+), read-out: CL NADPH(+).
[4] abbreviates: membrane permeation rate (Pe), 50 mM MOPSO buffer pH 6.5 with 5.0% glycocholic acid, 37° C., 18 hours, read-out: iPAMPA Pe.

Where two headings read alike, the source gives them in different places. Starred links: 1 amine or outer side, 2 acyl side, 3 side chain; linkers in the order of their positions; H or OH if unused. Positions of bridges follow the written chain, without caps; N, C: chain ends. Non-standard residues stand in square brackets, D forms with d. Residues, ends and D or L forms follow the SMILES beside them. *: point of attachment. NMePhe(3-Cl) = CN[C@@H](Cc1cccc(Cl)c1)C(=O)O; NMeF = CN[C@@H](Cc1ccccc1)C(=O)O; NMeβAla = CN(CCC(=O)[*:2])[*:1]; NMeL = CN[C@@H](CC(C)C)C(=O)O; NMeA = CN[C@@H](C)C(=O)O; Piperidide = C1CCN(*)CC1; dNMeA = CN[C@H](C)C(=O)O; Sar = CNCC(=O)O; tBu = CC(C)(C)*

As to `CC[C@H](C)[C@H](NC(=O)[C@@H](NC(=O)[C@H](Cc1ccccc1)NC(=O)[C@@H]1CC(=O)N[C@H](C(C)C)C(=O)N(C)[C@@H](C)C(=O)N(C)[C@@H](CC(C)C)C(=O)N[C@@H]([C@@H](C)O)C(=O)N(C)CC(=O)N(C)[C@@H](Cc2ccccc2)C(=O)N(C)[C@@H](CC(C)C)C(=O)N(C)[C@@H](Cc2cccc(Cl)c2)C(=O)N(C)[C@@H](CC(C)C)C(=O)N[C@@H](C)C(=O)N1)C(C)C)C(=O)N1CCCCC1` [DP-949] ([dV][NMeA][NMeL]T[Sar][NMeF][NMeL][NMePhe(3-Cl)][NMeL]ADFVI-Piperidide; lactam N-11), the microsomal CLint at 1 uM in data set [1] (setting [3]) is 37 µL/min/mg. The Papp at 18 hours, 50 µM in data set [2] (setting [4]) worked out at 0.11 ×10⁻⁶ cm/s.

With `CC[C@H](C)[C@@H]1NC(=O)[C@H](CC(C)C)NC(=O)[C@H](C)N(C)C(=O)[C@H](CC(C)C)N(C)C(=O)[C@H](CC(C)C)NC(=O)[C@H](Cc2cccc(Cl)c2)N(C)C(=O)[C@H]([C@@H](C)O)NC(=O)[C@H](C)N(C)C(=O)[C@H](C(C)C)NC(=O)[C@H](C)N(C)C(=O)C[C@@H](C(=O)N(C)[C@@H](Cc2ccccc2)C(=O)N(C)[C@@H](CC(C)C)C(=O)N[C@H](C(=O)N2CCCCC2)[C@@H](C)CC)NC1=O` [DP-950] ([NMeA]V[NMeA]T[NMePhe(3-Cl)]L[NMeL][NMeA]LID[NMeF][NMeL]I-Piperidide; lactam N-11), the microsomal CLint at 1 uM in data set [1] (setting [3]) is 12 µL/min/mg. Further, the Papp at 18 hours, 50 µM in data set [2] (setting [4]) was 0.1 ×10⁻⁶ cm/s.

On to `CC[C@H](C)[C@H](NC(=O)[C@@H](NC(=O)[C@H](C)N(C)C(=O)[C@@H]1CC(=O)N(C)[C@@H](C)C(=O)N(C)[C@@H](CC(C)C)C(=O)N(C)[C@@H](CC(C)C)C(=O)N[C@@H](CC(C)C)C(=O)N(C)[C@@H](CC(C)C)C(=O)N(C)[C@@H](Cc2ccccc2)C(=O)N(C)[C@@H](Cc2ccccc2)C(=O)N[C@@H]([C@@H](C)O)C(=O)N(C)[C@@H](C)C(=O)N(C)[C@@H](CC(C)C)C(=O)N1)C(C)C)C(=O)N1CCCCC1` [DP-951] ([NMeA][NMeL][NMeL]L[NMeL][NMeF][NMeF]T[NMeA][NMeL]D[NMeA]VI-Piperidide; lactam N-11), for which the microsomal CLint at 1 uM in data set [1] (setting [3]) came out at 11 µL/min/mg. The Papp at 18 hours, 50 µM in data set [2] (setting [4]) was 0.1 ×10⁻⁶ cm/s.

In data set [1] (human, pH 7.4, CL NADPH(+)), `CC[C@H](C)[C@H](NC(=O)[C@H](Cc1ccccc1)NC(=O)[C@@H]1CC(=O)N[C@@H](C)C(=O)N[C@@H]([C@@H](C)O)C(=O)N(C)CC(=O)N[C@@H](CC(C)C)C(=O)N2CCC[C@H]2C(=O)N(C)[C@@H](CC(C)C)C(=O)N[C@@H](Cc2ccccc2)C(=O)N(C)[C@@H](Cc2ccccc2)C(=O)N(C)[C@@H](CC(C)C)C(=O)N[C@@H](C)C(=O)N(C)[C@@H](CC(C)C)C(=O)N1)C(=O)N1CCCCC1` [DP-952] (AT[Sar]LP[NMeL]F[NMeF][NMeL]A[NMeL]DFI-Piperidide; lactam N-12) registered a microsomal CLint at 1 uM of 91 µL/min/mg. In data set [2] (pH 6.5), this molecule returned a Papp at 18 hours, 50 µM of 4.4 ×10⁻⁶ cm/s.

As to `CC[C@H](C)[C@H](NC(=O)[C@@H]1CC(=O)N[C@@H](Cc2ccccc2)C(=O)N(C)[C@@H](CC(C)C)C(=O)N[C@@H](C)C(=O)N(C)[C@@H](CC(C)C)C(=O)N[C@@H](COC(C)(C)C)C(=O)N(C)[C@@H](CC(C)C)C(=O)N(C)[C@@H](CC(C)C)C(=O)N[C@@H]([C@@H](C)O)C(=O)N[C@@H](Cc2ccccc2)C(=O)N(C)[C@@H](Cc2ccccc2)C(=O)N(C)[C@@H](C)C(=O)N1)C(=O)N[C@H](C(=O)N1CCCCC1)[C@@H](C)CC` [DP-953] (F[NMeL]A[NMeL]S(tBu)[NMeL][NMeL]TF[NMeF][NMeA]DII-Piperidide; lactam N-12), the microsomal CLint at 1 uM in data set [1] (setting [3]) amounted to 8 µL/min/mg. The Papp at 18 hours, 50 µM in data set [2] (setting [4]) worked out at 0.1 ×10⁻⁶ cm/s.

With `CC[C@H](C)[C@H](NC(=O)[C@@H](NC(=O)[C@@H]1CC(=O)N(C)CCC(=O)N[C@@H](Cc2ccccc2)C(=O)N(C)[C@@H](Cc2ccccc2)C(=O)N(C)[C@@H](CC(C)C)C(=O)N[C@@H]([C@@H](C)O)C(=O)N(C)[C@@H](C)C(=O)N(C)[C@@H](CC(C)C)C(=O)N[C@@H](C(C)C)C(=O)N(C)[C@@H](CC(C)C)C(=O)N[C@@H](COC(C)(C)C)C(=O)N(C)[C@@H](CC(C)C)C(=O)N1)C(C)C)C(=O)N1CCCCC1` [DP-954] ([NMeβAla]F[NMeF][NMeL]T[NMeA][NMeL]V[NMeL]S(tBu)[NMeL]DVI-Piperidide; lactam N-12), in data set [1] (setting [3]), the microsomal CLint at 1 uM turned out to be 26 µL/min/mg. For the same molecule, in data set [2] (setting [4]), the Papp at 18 hours, 50 µM is 0.1 ×10⁻⁶ cm/s.

With `CC[C@H](C)[C@H](NC(=O)[C@@H]1CC(=O)N[C@@H](C)C(=O)N[C@@H]([C@@H](C)O)C(=O)N(C)CC(=O)N[C@@H](CC(C)C)C(=O)N2CCC[C@H]2C(=O)N(C)[C@@H](CC(C)C)C(=O)N[C@@H](Cc2ccccc2)C(=O)N(C)[C@@H](Cc2ccccc2)C(=O)N(C)[C@@H](C)C(=O)N(C)[C@@H](CC(C)C)C(=O)N[C@@H](C)C(=O)N(C)[C@@H](CC(C)C)C(=O)N1)C(=O)N1CCCCC1` [DP-955] (AT[Sar]LP[NMeL]F[NMeF][NMeA][NMeL]A[NMeL]DI-Piperidide; lactam N-13), in data set [1] (setting [3]), the microsomal CLint at 1 uM stood at 30 µL/min/mg. Also, in data set [2] (setting [4]), the Papp at 18 hours, 50 µM was found to be 6.3 ×10⁻⁶ cm/s.

Consider `CC[C@H](C)[C@@H]1NC(=O)[C@H](C)N(C)C(=O)[C@H](CC(C)C)N(C)C(=O)[C@H](Cc2ccccc2)NC(=O)[C@H](CC(C)C)N(C)C(=O)[C@H](CC(C)C)N(C)C(=O)[C@H](C)N(C)C(=O)[C@H](Cc2ccccc2)N(C)C(=O)[C@@H](C)N(C)C(=O)C[C@@H](C(=O)N[C@H](C(=O)N2CCCCC2)[C@@H](C)CC)NC(=O)[C@H](CC(C)C)N(C)C(=O)[C@H]([C@@H](C)O)NC(=O)[C@H](CO)NC1=O` [DP-956] ([dNMeA][NMeF][NMeA][NMeL][NMeL]F[NMeL][NMeA]IST[NMeL]DI-Piperidide; lactam N-13), for which the microsomal CLint at 1 uM in data set [1] (setting [3]) was determined as 40 µL/min/mg. Besides, in data set [2] (setting [4]), the Papp at 18 hours, 50 µM was found to be 0.58 ×10⁻⁶ cm/s.

With `CC[C@H](C)[C@@H]1NC(=O)[C@H](CC(C)C)N(C)C(=O)[C@H](CC(C)C)N(C)C(=O)CN(C)C(=O)[C@H]([C@@H](C)O)NC(=O)[C@H](CC(C)C)N(C)C(=O)[C@H](CC(C)C)NC(=O)CCN(C)C(=O)C[C@@H](C(=O)N2CCCCC2)NC(=O)[C@H](C)NC(=O)[C@H](Cc2ccccc2)N(C)C(=O)[C@H](Cc2ccccc2)NC(=O)[C@H](CC(C)C)N(C)C1=O` [DP-957] ([NMeβAla]L[NMeL]T[Sar][NMeL][NMeL]I[NMeL]F[NMeF]AD-Piperidide; lactam N-13), in data set [1] (setting [3]), the microsomal CLint at 1 uM is 54 µL/min/mg. Besides, the Papp at 18 hours, 50 µM in data set [2] (setting [4]) worked out at 4 ×10⁻⁶ cm/s.

For `CC[C@H](C)[C@@H]1NC(=O)CCN(C)C(=O)C[C@@H](C(=O)N2CCCCC2)NC(=O)[C@H](CC(C)C)N(C)C(=O)[C@H](Cc2ccccc2)NC(=O)[C@H](CC(C)C)N(C)C(=O)[C@H](CC(C)C)N(C)C(=O)[C@H](C)N(C)C(=O)[C@H](CC(C)C)N(C)C(=O)[C@H]([C@@H](C)O)NC(=O)[C@H](Cc2ccccc2)N(C)C(=O)[C@H](C)N(C)C(=O)[C@H](CC(C)C)N(C)C1=O` [DP-958] ([NMeβAla]I[NMeL][NMeA][NMeF]T[NMeL][NMeA][NMeL][NMeL]F[NMeL]D-Piperidide; lactam N-13), the microsomal CLint at 1 uM in data set [1] (setting [3]) amounted to 31 µL/min/mg. Besides, the Papp at 18 hours, 50 µM in data set [2] (setting [4]) was 0.54 ×10⁻⁶ cm/s.

`CC[C@H](C)[C@H](NC(=O)[C@H](Cc1ccccc1)N(C)C(=O)[C@H](Cc1ccccc1)N(C)C(=O)[C@@H]1CC(=O)N(C)CCC(=O)N[C@@H]([C@@H](C)CC)C(=O)N(C)[C@@H](Cc2ccccc2)C(=O)N(C)[C@@H](CC(C)C)C(=O)N[C@@H]([C@@H](C)O)C(=O)N(C)CC(=O)N(C)[C@@H](CC(C)C)C(=O)N[C@@H](C(C)C)C(=O)N(C)[C@@H](CC(C)C)C(=O)N1)C(=O)N1CCCCC1` [DP-961] ([NMeβAla]I[NMeF][NMeL]T[Sar][NMeL]V[NMeL]D[NMeF][NMeF]I-Piperidide; lactam N-10): the microsomal CLint at 1 uM in data set [1] (setting [3]) is 33 µL/min/mg. Further, the Papp at 18 hours, 50 µM in data set [2] (setting [4]) came to 0.57 ×10⁻⁶ cm/s.

In the case of `CC[C@H](C)[C@@H]1NC(=O)[C@H](C)N(C)C(=O)[C@H](CC(C)C)N(C)C(=O)[C@H](Cc2ccccc2)NC(=O)[C@H](CC(C)C)N(C)C(=O)[C@H](CC(C)C)N(C)C(=O)[C@H](C)N(C)C(=O)[C@H](Cc2ccccc2)N(C)C(=O)[C@@H](C)N(C)C(=O)C[C@@H](C(=O)N[C@H](C(=O)N2CCCCC2)[C@@H](C)CC)NC(=O)[C@H](CC(C)C)N(C)C(=O)[C@H]([C@@H](C)O)NC(=O)[C@H](COC(C)(C)C)NC1=O` [DP-963] ([dNMeA][NMeF][NMeA][NMeL][NMeL]F[NMeL][NMeA]IS(tBu)T[NMeL]DI-Piperidide; lactam N-13), the microsomal CLint at 1 uM in data set [1] (setting [3]) turned out to be 18 µL/min/mg. Moreover, the Papp at 18 hours, 50 µM in data set [2] (setting [4]) was found to be 0.1 ×10⁻⁶ cm/s.

`CC[C@H](C)[C@@H]1NC(=O)[C@H](Cc2cccc(Cl)c2)N(C)C(=O)[C@H](CC(C)C)N(C)C(=O)C[C@@H](C(=O)N2CCCCC2)NC(=O)[C@H](CC(C)C)N(C)C(=O)[C@H](CC(C)C)N(C)C(=O)[C@H](CC(C)C)NC(=O)[C@H](C)N(C)C(=O)[C@@H](NC(=O)[C@H](CC(C)C)N(C)C(=O)[C@@H]2CCCN2C(=O)CO)CCCCNC1=O` [DP-964, ^HOGly-Pro-MeLeu-*Lys-MeAla-Leu-MeLeu-MeLeu-Asp-piperidine-MeLeu-MePhe(3-Cl)-Ile* (cyclized at two * sites)] had a microsomal CLint at 1 uM in data set [1] (human, pH 7.4, CL NADPH(+)) of 38 µL/min/mg. The Papp at 18 hours, 50 µM in data set [2] (pH 6.5) was found to be 8.9 ×10⁻⁶ cm/s.
